According to patent US8802597B2, “Herbicidal pyrimidines” (E I du Pont de Nemours and Company, priority 2003, dated 2014):

How the values were obtained:
Assay in all cases: Test C pre/postemergence
Format in all cases: in vivo
Details in all cases: Postemergence
[1] = test system: corn (Zea mays)
Description: (§1) Seeds or nutlets of plant species selected from bermudagrass (Cynodon dactylon), Surinam grass (Brachiaria decumbens), cocklebur (Xanthium strumarium), corn (Zea mays), crabgrass (Digitaria sanguinalis), woolly cupgrass (Eriochloa villosa), giant foxtail (Setaria faberii), goosegrass (Eleusine indica), johnsongrass (Sorghum halepense), kochia (Kochia scoparia), lambsquarters (Chenopodium album), morningglory (Ipomoea coccinea), eastern black nightshade (Solanum ptycanthum), yellow nutsedge (Cyperus esculentus), pigweed (Amaranthus retroflexus), common ragweed (Ambrosia elatior), soybean (Glycine max), common (oilseed) sunflower (Helianthus annuus), and velvetleaf (Abutilon theophrasti) were planted and treated preemergence with test chemicals formulated in a non-phytotoxic solvent mixture which included a surfactant.
(§2) At the same time, plants selected from these crop and weed species and also winter barley (Hordeum vulgare), blackgrass (Alopecurus myosuroides), canarygrass (Phalaris minor), chickweed (Stellaria media), downy brome (Bromus tectorum), green foxtail (Setaria viridis), Italian ryegrass (Lolium multiflorum), wheat (Triticum aestivum), wild oat (Avena fatua) and windgrass (Apera spica-venti) were treated with postemergence applications of some of the test chemicals formulated in the same manner. Plants ranged in height from 2 to 18 cm (1- to 4-leaf stage) for postemergence treatments. Plant species in the flooded paddy test consisted of rice (Oryza sativa), umbrella sedge (Cyperus difformis), duck salad (Heteranthera limosa) and barnyardgrass (Echinochloa crus-galli) grown to the 2-leaf stage for testing. Treated plants and controls were maintained in a greenhouse for 12 to 14 days, after which time all species were compared to controls and visually evaluated. Plant response ratings, summarized in Table C, are based on a scale of 0 to 100 where 0 is no effect and 100 is complete control. A dash (-) response means no test result.

[2] = test system: kochia (Kochia scoparia)
Description: as §1, §2

[3] = test system: cocklebur (Xanthium strumarium)
Description: as §1, §2

[4] = test system: soybean (Glycine max)
Description: as §1, §2

[5] = test system: giant foxtail (Setaria faberii)
Description: as §1, §2

[6] = test system: Surinam grass (Brachiaria decumbens)
Description: as §1, §2

[7] = test system: crabgrass (Digitaria sanguinalis)
Description: as §1, §2

[8] = test system: johnsongrass (Sorghum halepense)
Description: as §1, §2

[9] = test system: lambsquarters (Chenopodium album)
Description: as §1, §2

[10] = test system: morningglory (Ipomoea coccinea)
Description: as §1, §2

[11] = 62 g ai/ha, scale 0 to 100 (0 no effect, 100 complete control)
[12] = 125 g ai/ha, scale 0 to 100 (0 no effect, 100 complete control)

Structure (SMILES): CC(=O)NN=Cc1nc(C2CC2)nc(N)c1Br [Compound 51]
- Corn plant response rating [1, 11]: 0
- Corn plant response rating [1, 12]: 0
- Plant response rating, Corn ([1]; 250 g ai/ha, scale 0 to 100): 0
- Plant response rating, Corn ([1]; 500 g ai/ha, scale 0 to 100): 0
- Kochia plant response rating [2, 11]: 15
- Kochia plant response rating [2, 12]: 60
- Plant response rating, Kochia ([2]; 250 g ai/ha, scale 0 to 100): 85
- Plant response rating, Kochia ([2]; 500 g ai/ha, scale 0 to 100): 95
- Cocklebur plant response rating [3, 11]: 65
- Cocklebur plant response rating [3, 12]: 65
- Plant response rating, Cocklebur ([3]; 250 g ai/ha, scale 0 to 100): 70
- Plant response rating, Cocklebur ([3]; 500 g ai/ha, scale 0 to 100): 85
- Soybean plant response rating [4, 11]: 75
- Soybean plant response rating [4, 12]: 95
- Plant response rating, Soybean ([4]; 250 g ai/ha, scale 0 to 100): 95
- Plant response rating, Soybean ([4]; 500 g ai/ha, scale 0 to 100): 95
- Foxtail, Giant plant response rating [5, 11]: 0
- Foxtail, Giant plant response rating [5, 12]: 0
- Plant response rating, Foxtail, Giant ([5]; 250 g ai/ha, scale 0 to 100): 0
- Plant response rating, Foxtail, Giant ([5]; 500 g ai/ha, scale 0 to 100): 0
- Surinam Grass plant response rating [6, 11]: 0
- Surinam Grass plant response rating [6, 12]: 0
- Plant response rating, Surinam Grass ([6]; 250 g ai/ha, scale 0 to 100): 0
- Plant response rating, Surinam Grass ([6]; 500 g ai/ha, scale 0 to 100): 0
- Crabgrass plant response rating [7, 11]: 0
- Crabgrass plant response rating [7, 12]: 0
- Plant response rating, Crabgrass ([7]; 250 g ai/ha, scale 0 to 100): 0
- Plant response rating, Crabgrass ([7]; 500 g ai/ha, scale 0 to 100): 45
- Johnsongrass plant response rating [8, 11]: 0
- Plant response rating, Johnsongrass ([8]; 250 g ai/ha, scale 0 to 100): 0
- Plant response rating, Johnsongrass ([8]; 500 g ai/ha, scale 0 to 100): 0
- Lambsquarters plant response rating [9, 11]: 60
- Lambsquarters plant response rating [9, 12]: 75
- Plant response rating, Lambsquarters ([9]; 250 g ai/ha, scale 0 to 100): 85
- Plant response rating, Lambsquarters ([9]; 500 g ai/ha, scale 0 to 100): 90
- Morningglory plant response rating [10, 11]: 80
- Morningglory plant response rating [10, 12]: 80
- Plant response rating, Morningglory ([10]; 250 g ai/ha, scale 0 to 100): 85
- Plant response rating, Morningglory ([10]; 500 g ai/ha, scale 0 to 100): 100

Structure (SMILES): COC(=O)c1nc(C2CC2)nc(N)c1I [Compound 7]
- Corn plant response rating (crop injury, 0 = no effect, 100 = complete kill) at 62 g/ha ([1]; Zea mays, post-emergence, 62 g ai/ha, scale 0 to 100 (0 no effect, 100 complete control), read-out: Corn plant response rating): 0%
- Corn plant response rating (crop injury, 0 = no effect, 100 = complete kill) at 125 g/ha ([1]; Zea mays, post-emergence, 125 g ai/ha, scale 0 to 100 (0 no effect, 100 complete control), read-out: Corn plant response rating): 0%
- Corn plant response rating (crop injury, 0 = no effect, 100 = complete kill) at 250 g/ha ([1]; Zea mays, post-emergence, 250 g ai/ha, scale 0 to 100): 0%
- Corn plant response rating (crop injury, 0 = no effect, 100 = complete kill) at 500 g/ha ([1]; Zea mays, post-emergence, 500 g ai/ha, scale 0 to 100): 0%
- pest or weed control at 62 g/ha ([2]; Bassia scoparia, post-emergence, 62 g ai/ha, scale 0 to 100 (0 no effect, 100 complete control), read-out: Kochia plant response rating): 40%
- pest or weed control at 125 g/ha ([2]; Bassia scoparia, post-emergence, 125 g ai/ha, scale 0 to 100 (0 no effect, 100 complete control), read-out: Kochia plant response rating): 65%
- pest or weed control at 250 g/ha ([2]; Bassia scoparia, post-emergence, 250 g ai/ha, scale 0 to 100, read-out: Plant response rating, Kochia): 70%
- pest or weed control at 500 g/ha ([2]; Bassia scoparia, post-emergence, 500 g ai/ha, scale 0 to 100, read-out: Plant response rating, Kochia): 80%
- pest or weed control at 62 g/ha ([3]; Xanthium strumarium, post-emergence, 62 g ai/ha, scale 0 to 100 (0 no effect, 100 complete control), read-out: Cocklebur plant response rating): 30%
- pest or weed control at 125 g/ha ([3]; Xanthium strumarium, post-emergence, 125 g ai/ha, scale 0 to 100 (0 no effect, 100 complete control), read-out: Cocklebur plant response rating): 30%
- pest or weed control at 250 g/ha ([3]; Xanthium strumarium, post-emergence, 250 g ai/ha, scale 0 to 100, read-out: Plant response rating, Cocklebur): 30%
- pest or weed control at 500 g/ha ([3]; Xanthium strumarium, post-emergence, 500 g ai/ha, scale 0 to 100, read-out: Plant response rating, Cocklebur): 30%
- plant injury at 62 g/ha ([4]; Glycine max, post-emergence, 62 g ai/ha, scale 0 to 100 (0 no effect, 100 complete control), read-out: Soybean plant response rating): 25%
- plant injury at 125 g/ha ([4]; Glycine max, post-emergence, 125 g ai/ha, scale 0 to 100 (0 no effect, 100 complete control), read-out: Soybean plant response rating): 25%
- plant injury at 250 g/ha ([4]; Glycine max, post-emergence, 250 g ai/ha, scale 0 to 100, read-out: Plant response rating, Soybean): 35%
- plant injury at 500 g/ha ([4]; Glycine max, post-emergence, 500 g ai/ha, scale 0 to 100, read-out: Plant response rating, Soybean): 60%
- pest or weed control at 125 g/ha ([5]; Setaria faberi, post-emergence, 125 g ai/ha, scale 0 to 100 (0 no effect, 100 complete control), read-out: Foxtail, Giant plant response rating): 0%
- pest or weed control at 500 g/ha ([5]; Setaria faberi, post-emergence, 500 g ai/ha, scale 0 to 100, read-out: Plant response rating, Foxtail, Giant): 10%
- pest or weed control at 62 g/ha ([5]; Setaria faberi, post-emergence, 62 g ai/ha, scale 0 to 100 (0 no effect, 100 complete control), read-out: Foxtail, Giant plant response rating): 0%
- pest or weed control at 250 g/ha ([5]; Setaria faberi, post-emergence, 250 g ai/ha, scale 0 to 100, read-out: Plant response rating, Foxtail, Giant): 0%
- pest or weed control at 125 g/ha ([6]; Urochloa decumbens, post-emergence, 125 g ai/ha, scale 0 to 100 (0 no effect, 100 complete control), read-out: Surinam Grass plant response rating): 0%
- pest or weed control at 500 g/ha ([6]; Urochloa decumbens, post-emergence, 500 g ai/ha, scale 0 to 100, read-out: Plant response rating, Surinam Grass): 0%
- pest or weed control at 62 g/ha ([6]; Urochloa decumbens, post-emergence, 62 g ai/ha, scale 0 to 100 (0 no effect, 100 complete control), read-out: Surinam Grass plant response rating): 0%
- pest or weed control at 250 g/ha ([6]; Urochloa decumbens, post-emergence, 250 g ai/ha, scale 0 to 100, read-out: Plant response rating, Surinam Grass): 0%
- pest or weed control at 62 g/ha ([7]; Digitaria sanguinalis, post-emergence, 62 g ai/ha, scale 0 to 100 (0 no effect, 100 complete control), read-out: Crabgrass plant response rating): 0%
- pest or weed control at 125 g/ha ([7]; Digitaria sanguinalis, post-emergence, 125 g ai/ha, scale 0 to 100 (0 no effect, 100 complete control), read-out: Crabgrass plant response rating): 0%
- pest or weed control at 250 g/ha ([7]; Digitaria sanguinalis, post-emergence, 250 g ai/ha, scale 0 to 100, read-out: Plant response rating, Crabgrass): 5%
- pest or weed control at 500 g/ha ([7]; Digitaria sanguinalis, post-emergence, 500 g ai/ha, scale 0 to 100, read-out: Plant response rating, Crabgrass): 25%
- pest or weed control at 62 g/ha ([8]; Sorghum halepense, post-emergence, 62 g ai/ha, scale 0 to 100 (0 no effect, 100 complete control), read-out: Johnsongrass plant response rating): 0%
- pest or weed control at 125 g/ha ([8]; Sorghum halepense, post-emergence, 125 g ai/ha, scale 0 to 100 (0 no effect, 100 complete control), read-out: Johnsongrass plant response rating): 0%
- pest or weed control at 250 g/ha ([8]; Sorghum halepense, post-emergence, 250 g ai/ha, scale 0 to 100, read-out: Plant response rating, Johnsongrass): 0%
- pest or weed control at 500 g/ha ([8]; Sorghum halepense, post-emergence, 500 g ai/ha, scale 0 to 100, read-out: Plant response rating, Johnsongrass): 0%
- pest or weed control at 62 g/ha ([9]; Chenopodium album, post-emergence, 62 g ai/ha, scale 0 to 100 (0 no effect, 100 complete control), read-out: Lambsquarters plant response rating): 50%
- pest or weed control at 125 g/ha ([9]; Chenopodium album, post-emergence, 125 g ai/ha, scale 0 to 100 (0 no effect, 100 complete control), read-out: Lambsquarters plant response rating): 60%
- pest or weed control at 250 g/ha ([9]; Chenopodium album, post-emergence, 250 g ai/ha, scale 0 to 100, read-out: Plant response rating, Lambsquarters): 70%
- pest or weed control at 500 g/ha ([9]; Chenopodium album, post-emergence, 500 g ai/ha, scale 0 to 100, read-out: Plant response rating, Lambsquarters): 80%
- pest or weed control at 125 g/ha ([10]; Ipomoea, post-emergence, 125 g ai/ha, scale 0 to 100 (0 no effect, 100 complete control), read-out: Morningglory plant response rating): 50%
- pest or weed control at 250 g/ha ([10]; Ipomoea, post-emergence, 250 g ai/ha, scale 0 to 100, read-out: Plant response rating, Morningglory): 55%
- pest or weed control at 500 g/ha ([10]; Ipomoea, post-emergence, 500 g ai/ha, scale 0 to 100, read-out: Plant response rating, Morningglory): 65%
